Laboratory results from ChEMBL document CHEMBL2021922, “Identification of a Potent and Selective Cannabinoid CB1 Receptor Antagonist from Auxarthron reticulatum” (ACS Med Chem Lett, 2011).
pKi: −log10 of the molar value. Calls of active or inactive are those of the source. The rule behind the calls is not given here.

Experiments:
[1] = biological target: Cannabinoid receptor 2 (Homo sapiens) (UniProt P34972); experiment: Displacement of [3H]CP55940 from human recombinant CB2 receptor expressed in CHO cells at 10 uM after 2 hrs by liquid scintillation counting; format: cell-based
Sequence of Cannabinoid receptor 2 (Homo sapiens) (P34972 whole entry): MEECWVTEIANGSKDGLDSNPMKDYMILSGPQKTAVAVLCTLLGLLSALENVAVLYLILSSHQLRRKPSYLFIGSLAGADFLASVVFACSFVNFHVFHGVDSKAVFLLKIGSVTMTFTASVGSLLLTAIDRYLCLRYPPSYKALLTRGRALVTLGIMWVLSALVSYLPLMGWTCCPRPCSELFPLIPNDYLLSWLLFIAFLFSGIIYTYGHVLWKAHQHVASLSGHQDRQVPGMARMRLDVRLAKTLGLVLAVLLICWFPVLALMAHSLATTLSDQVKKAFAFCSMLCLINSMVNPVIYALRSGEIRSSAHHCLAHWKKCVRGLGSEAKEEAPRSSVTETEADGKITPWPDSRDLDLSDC

Cannabinoid receptor 1 = Cannabinoid receptor 1 (Homo sapiens, UniProt P21554); experiment: Displacement of [3H]CP55940 from human recombinant CB1 receptor expressed in CHO cells after 2 hrs by liquid scintillation counting; format: cell-based
Sequence of Cannabinoid receptor 1 (P21554 whole entry): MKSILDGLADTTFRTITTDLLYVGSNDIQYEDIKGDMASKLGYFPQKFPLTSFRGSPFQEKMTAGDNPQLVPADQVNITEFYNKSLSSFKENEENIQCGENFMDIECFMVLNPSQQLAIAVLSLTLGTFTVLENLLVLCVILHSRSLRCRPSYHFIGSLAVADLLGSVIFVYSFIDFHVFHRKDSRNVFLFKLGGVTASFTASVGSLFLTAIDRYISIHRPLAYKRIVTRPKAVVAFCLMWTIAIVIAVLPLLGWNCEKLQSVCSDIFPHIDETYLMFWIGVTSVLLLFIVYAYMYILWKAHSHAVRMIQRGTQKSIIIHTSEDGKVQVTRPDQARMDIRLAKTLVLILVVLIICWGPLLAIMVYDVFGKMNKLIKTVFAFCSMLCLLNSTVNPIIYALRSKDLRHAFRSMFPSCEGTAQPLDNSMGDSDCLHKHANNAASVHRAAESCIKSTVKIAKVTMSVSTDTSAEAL

Q: For `C=CC(C)(C)[C@@]12C[C@H]3C(=O)N4[C@@H](C[C@@]5(C(C)(C)C=C)c6ccccc6N[C@@H]45)C(=O)N3[C@@H]1Nc1ccccc12` [AMAUROMINE], which Activity [1] is on record?
A: inactive

Q: And the pKi (Cannabinoid receptor 1)?
A: 6.75
